Measured values from patent publication US20180008688A1, “METHOD AND COMPOSITIONS FOR ENHANCING IMMUNOTHERAPEUTIC TREATMENT OF A CANCER” (Augusta University Research Institute, Inc., priority 2016, published 2018).

Key:
p53 = p53 expression in mononuclear cells of tumors after systemic nutlin-3a (FACS); assay type: in vivo, mouse; conditions: FIG. 7
Method: Antibody against the N-terminus of p53 (clone 1C12), used as in Watanabe et al., (2014) Immunity 40: 681-691, was from Cell Signaling Technology. Antibody against the C-terminus p53 (clone PAb122 (Gurney et al., (1980) J. Virol. 34: 752-763) was from Novus Biologicals. For both antibodies, staining was performed following permeablization with eBioscience fix-and-perm. Anti-phospho-p53(Ser15) (clone D4S1H) was from Cell Signaling Technology. For phospho-specific staining, cells were washed in PBS, fixed with 2% paraformaldehyde for 10 min at 37° C., pre-chilled for 1 min, then permeabilized by slow addition of ice-cold methanol to a final concentration of 90%. Cells were then incubated on ice for 30 min, washed with 1% FCS/PBS, blocked with the same solution for 10 min at room temperature, then for 1 h at room temperature and washed. Cells were acquired immediately after staining.
VO-OHpic was given at 10 mg/kg/day i.p., in 10% DMSO/PBS. Cyclophosphamide was given at 150 mg/kg i.p×1 dose. Oxaliplatin was given at 5 mg/kg i.p×1 dose. Nutlin-3a was dissolved at 2 mg/ml in 10% DMSO in buffered saline and administered daily at 10 mg/kg/day i.p. The 10 mg/kg/day dose was at the lower end of the parenteral dosing range described for mice (Zhang et al., (2011) Drug Meta. Dispos. 39: 15-21). […]

B16F10 tumors = assay: Established B16F10 tumors treated with dual checkpoint blockade with or without nutlin-3a; assay type: in vivo, mouse
Method: In vivo tumor studies: The B16F10 and E.G7 (EL4-OVA) cell lines were obtained from ATCC. B16-OVA (B16F10 transfected with full-length chicken ovalbumin) clone MO4 was according to Falo et al. ((1995) Nat. Med. 1: 649-653). B16F10 cells expressing EGFP protein (B16-GFP cells) were derived using lentiviral transfection. Tumor implantation was performed as described (Sharma et al., (2007) J. Clin. Invest. 117: 2570-2582), using 1×10^5 cells for B16F10 and 1×10^6 cells for other cell lines (large inocula were used to ensure rapid tumor engraftment and immune suppression). Tumors were implanted bilaterally in each mouse as a control for reproducible implantation technique; replicate tumor diameters in a single mouse were typically within ±15%. Tumor volume was calculated from orthogonal diameters using the formula V=L×W^2×π/6. Mice received approved euthanasia when tumors reached a size of 300 mm^2 (product of orthogonal diameters); death was never used a planned endpoint in any study.
Tumor implantation was performed as described (Sharma et al., (2007) J. Clin. Invest. 117: 2570-2582). VO-OHpic was given at 10 mg/kg/day i.p., in 10% DMSO/PBS. Cyclophosphamide was given at 150 mg/kg i.p×1 dose; and oxaliplatin at 5 mg/kg i.p×1 dose. Nutlin-3a was administered daily at 10 mg/kg/day i.p. For checkpoint blockade, mice received anti-CTLA-4 plus a cocktail of antibodies against the PD-1 pathway. […]

OT-I T cells [1] = assay: Autoimmune diabetes in RIP-mOVA mice after OT-I T cell transfer (no tumor); assay type: in vivo, mouse
Method: Accordingly and without wishing to be bound by any one hypothesis, it is likely that p53 can play two different immunologic roles, depending on the context (tumor versus normal tissues). […] Following T cell transfer, these mice progressively developed lethal autoimmune diabetes. However, if mice were treated with nutlin-3a diabetes formation was suppressed and the mice remained healthy.

OT-I T cells [2] = assay: OT-I T cells activated with cognate antigen and different antigen-presenting cells, with nutlin; assay type: cell-based, mouse
Source text: Under normal circumstances the signal to downregulate p53 is provided by engagement of the T cell antigen receptor (TCR) that activates MDM2 and targets p53 for degradation (Watanabe et al., (2014) Immunity 40: 681-691).
To test whether the effect of Ly6c^+CD103^+ dendritic cells was due to IL-12, OT-I T cells were activated using 3 different types of antigen-presenting cells (APCs).
Consistent with this, when dendritic cells were sorted from TDLNs of IL-12-deficient mice (IL-12p40-KO), treated with the same immunotherapy regimen, these dendritic cells were unable to rescue T cells from nutlin. T cell proliferation tracked concordantly with p53 levels. In these experiments with dendritic cells from TDLNs, feeder populations were added to maintain functional activity.

[3] = activation with cognate antigen

COc1ccc(C2=NC(c3ccc(Cl)cc3)C(c3ccc(Cl)cc3)N2C(=O)N2CCNC(=O)C2)c(OC(C)C)c1 (single isomer, unassigned; (-)) [nutlin-3a, (−)-4-(4,5-Bis(4-chlorophenyl)-2-(2-isopropoxy-4-methoxyphenyl)-4,5-dihydro-1H-imidazole-1-carbonyl)piperazin-2-one]
effect on p53 in remaining tumor cells (negative for CD11c/Ly6c/Gr 1) (p53): little effect | increase in p53 levels in CD11c+ cells and myeloid cells in tumors (p53; systemic nutlin-3a, including Ly6c+CD11c^NEG myeloid precursors): 2-3 fold | Ly6C+/CD103+ dendritic cells in tumors (B16F10 tumors; nutlin added to checkpoint blockade, after 2 weeks of treatment): maintained large numbers | anti-tumor effect (B16F10 tumors; nutlin-3a 10 mg/kg/day i.p. added to dual checkpoint blockade, FIG. 8A): significantly enhanced and prolonged the effect of treatment | level of p53 in OT-I cells in pancreatic LNs (OT-I T cells [1]; mouse, in vivo): increased | diabetes formation (OT-I T cells [1]; nutlin-3a treatment after OT-I transfer): suppressed | expression of granzyme B in OT-I cells (OT-I T cells [1]; pancreatic LNs): decreasing | down-regulation of p53 in OT-I T cells (OT-I T cells [2]; CD11c+Ly6c+ dendritic cells from TDLNs of VO-OHpic+CTX treated mice as APCs): lost all ability to prevent down-regulation of p53 | T cell proliferation (OT-I T cells [2]; [3]): prevented T cell proliferation | total p53 in OT-I T cells (OT-I T cells [2]; [3]): marked increase | down-regulation of p53 in OT-I T cells (OT-I T cells [2]; dendritic cells from normal LNs as APCs): completely prevented
